ChEMBL document CHEMBL1201862, “PubChem BioAssay data set” (2004)
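Tested at 5 concentrations; 48 h exposure; 96-well plates; endpoints linearly interpolated, else capped at highest concentration. Here, GI50 denotes the concentration required for 50% inhibition of growth.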 The source made the active and inactive calls. Rule as the data show it: active = GI50 up to about 1.1 µM and inactive = higher.

Key:
Assay in all cases: NCI tumour cell line growth inhibition, 48 h
CAKI-1 = test system: CAKI-1
SF-539 = test system: SF-539
T47D = test system: T47D
EKVX = test system: EKVX
MOLT-4 = test system: MOLT-4
PC-3 = test system: PC-3
SF-295 = test system: SF-295
MDA-MB-231 = test system: MDA-MB-231
KM12 = test system: KM12
SNB-75 = test system: SNB-75
Hs-578T = test system: Hs-578T
NCI/ADR-RES = test system: NCI/ADR-RES
HCT-116 = test system: HCT-116
HT-29 = test system: HT-29
SK-MEL-28 = test system: SK-MEL-28
UACC-257 = test system: UACC-257
K562 = test system: K562
HOP-62 = test system: HOP-62
M14 = test system: M14
SNB-19 = test system: SNB-19
SW-620 = test system: SW-620
NCI-H522 = test system: NCI-H522
NCI-H226 = test system: NCI-H226
CCRF-CEM = test system: CCRF-CEM
MCF7 = test system: MCF7
SR = test system: SR
SF-268 = test system: SF-268
TK-10 = test system: TK-10
NCI-H460 = test system: NCI-H460
HCC 2998 = test system: HCC 2998
HL-60 = test system: HL-60
Malme-3M = test system: Malme-3M
786-0 = test system: 786-0
SN12C = test system: SN12C
ACHN = test system: ACHN
RXF 393 = test system: RXF 393
U-251 = test system: U-251
SK-OV-3 = test system: SK-OV-3
MDA-MB-435 = test system: MDA-MB-435
LOX IMVI = test system: LOX IMVI
OVCAR-5 = test system: OVCAR-5
SK-MEL-5 = test system: SK-MEL-5
OVCAR-3 = test system: OVCAR-3
COLO 205 = test system: COLO 205
OVCAR-4 = test system: OVCAR-4
HCT-15 = test system: HCT-15
UACC-62 = test system: UACC-62
DU-145 = test system: DU-145
OVCAR-8 = test system: OVCAR-8
BT-549 = test system: BT-549
A498 = test system: A498
A549 = test system: A549
RPMI-8226 = test system: RPMI-8226
SK-MEL-2 = test system: SK-MEL-2
HOP-92 = test system: HOP-92
NCI-H23 = test system: NCI-H23
IGROV-1 = test system: IGROV-1
MDA-N = test system: MDA-N
UO-31 = test system: UO-31

COc1ccc2nc3ccc(OC)cc3c(SCc3ccccc3)c2c1
GI50 (CAKI-1): > 100 µM (inactive) | GI50 (SF-539): > 89.3 µM (inactive) | GI50 (T47D): > 100 µM (inactive) | GI50 (EKVX): > 100 µM (inactive) | GI50 (MOLT-4): > 41.6 µM (inactive) | GI50 (PC-3): > 100 µM (inactive) | GI50 (SF-295): > 91 µM (inactive) | GI50 (MDA-MB-231): > 100 µM (inactive) | GI50 (KM12): > 100 µM (inactive) | GI50 (SNB-75): > 88.7 µM (inactive) | GI50 (Hs-578T): > 100 µM (inactive) | GI50 (NCI/ADR-RES): > 100 µM (inactive) | GI50 (HCT-116): > 74 µM (inactive) | GI50 (HT-29): > 100 µM (inactive) | GI50 (SK-MEL-28): > 85.7 µM (inactive) | GI50 (UACC-257): > 92.5 µM (inactive) | GI50 (K562): > 63.2 µM (inactive) | GI50 (HOP-62): > 100 µM (inactive) | GI50 (M14): > 33.1 µM (inactive) | GI50 (SNB-19): > 100 µM (inactive) | GI50 (SW-620): > 74.3 µM (inactive) | GI50 (NCI-H522): > 84.9 µM (inactive) | GI50 (NCI-H226): > 100 µM (inactive) | GI50 (CCRF-CEM): > 52.7 µM (inactive) | GI50 (MCF7): > 55.3 µM (inactive) | GI50 (SR): > 32.9 µM (inactive) | GI50 (SF-268): > 100 µM (inactive) | GI50 (TK-10): > 80.7 µM (inactive) | GI50 (NCI-H460): > 89.1 µM (inactive) | GI50 (HCC 2998): 38.8 µM (inactive) | GI50 (HL-60): > 100 µM (inactive) | GI50 (Malme-3M): > 100 µM (inactive) | GI50 (786-0): 76 µM (inactive) | GI50 (SN12C): > 100 µM (inactive) | GI50 (ACHN): 97.9 µM (inactive) | GI50 (RXF 393): > 100 µM (inactive) | GI50 (U-251): > 88.3 µM (inactive) | GI50 (SK-OV-3): > 100 µM (inactive) | GI50 (MDA-MB-435): > 76.9 µM (inactive) | GI50 (LOX IMVI): > 83.4 µM (inactive) | GI50 (OVCAR-5): > 100 µM (inactive) | GI50 (SK-MEL-5): > 100 µM (inactive) | GI50 (OVCAR-3): > 100 µM (inactive) | GI50 (COLO 205): > 86.3 µM (inactive) | GI50 (OVCAR-4): > 100 µM (inactive) | GI50 (HCT-15): > 95.5 µM | GI50 (UACC-62): > 100 µM (inactive) | GI50 (DU-145): > 100 µM (inactive) | GI50 (OVCAR-8): > 84.1 µM (inactive) | GI50 (BT-549): > 100 µM (inactive) | GI50 (A498): > 100 µM (inactive) | GI50 (A549): > 82.4 µM (inactive) | GI50 (RPMI-8226): 48.8 µM (inactive) | GI50 (SK-MEL-2): > 100 µM (inactive) | GI50 (HOP-92): > 100 µM (inactive) | GI50 (NCI-H23): 64.7 µM (inactive) | GI50 (IGROV-1): > 63.1 µM (inactive)

COc1ccccc1-c1c(C#N)c(N)[nH]c(=S)c1C#N
GI50 (CAKI-1): > 100 µM (inactive) | GI50 (SF-539): > 100 µM (inactive) | GI50 (EKVX): 43 µM (inactive) | GI50 (MOLT-4): 11.5 µM (inactive) | GI50 (PC-3): 32.1 µM (inactive) | GI50 (SF-295): 52.8 µM (inactive) | GI50 (MDA-MB-231): 47.6 µM (inactive) | GI50 (KM12): 62.8 µM (inactive) | GI50 (Hs-578T): 30.9 µM (inactive) | GI50 (NCI/ADR-RES): > 100 µM (inactive) | GI50 (HCT-116): 41.2 µM (inactive) | GI50 (HT-29): 65.6 µM (inactive) | GI50 (SK-MEL-28): 71.6 µM (inactive) | GI50 (UACC-257): > 100 µM (inactive) | GI50 (K562): 14.4 µM (inactive) | GI50 (HOP-62): > 100 µM (inactive) | GI50 (M14): 78.2 µM (inactive) | GI50 (SNB-19): > 100 µM (inactive) | GI50 (MDA-N): 25.9 µM (inactive) | GI50 (SW-620): 27.4 µM (inactive) | GI50 (NCI-H522): 23.2 µM (inactive) | GI50 (NCI-H226): 31.6 µM (inactive) | GI50 (MCF7): 44.5 µM (inactive) | GI50 (SR): 46.5 µM (inactive) | GI50 (SF-268): 47.6 µM (inactive) | GI50 (UO-31): 93.1 µM (inactive) | GI50 (TK-10): > 100 µM (inactive) | GI50 (NCI-H460): 67 µM (inactive) | GI50 (HCC 2998): 74.3 µM (inactive) | GI50 (HL-60): 34.7 µM (inactive) | GI50 (Malme-3M): 80.4 µM (inactive) | GI50 (786-0): 50.7 µM (inactive) | GI50 (SN12C): 25.4 µM (inactive) | GI50 (ACHN): > 100 µM (inactive) | GI50 (RXF 393): 34.4 µM (inactive) | GI50 (U-251): 48.1 µM (inactive) | GI50 (MDA-MB-435): 35.6 µM (inactive) | GI50 (LOX IMVI): 65.2 µM (inactive) | GI50 (OVCAR-5): > 100 µM (inactive) | GI50 (SK-MEL-5): 32.1 µM (inactive) | GI50 (OVCAR-3): 56.1 µM (inactive) | GI50 (COLO 205): 53.6 µM (inactive) | GI50 (OVCAR-4): 57.8 µM (inactive) | GI50 (HCT-15): > 100 µM | GI50 (UACC-62): 55.1 µM (inactive) | GI50 (DU-145): > 100 µM (inactive) | GI50 (OVCAR-8): 61.4 µM (inactive) | GI50 (BT-549): 47.9 µM (inactive) | GI50 (A498): 86.1 µM (inactive) | GI50 (A549): 83 µM (inactive) | GI50 (RPMI-8226): 20.5 µM (inactive) | GI50 (SK-MEL-2): 37 µM (inactive) | GI50 (HOP-92): 62.5 µM (inactive) | GI50 (NCI-H23): > 100 µM (inactive) | GI50 (IGROV-1): 92.3 µM (inactive)

CN1CCOC(c2ccc(Cl)cc2)O1 (stereo not drawn)
GI50 (CAKI-1): > 100 µM (inactive) | GI50 (SF-539): > 100 µM (inactive) | GI50 (EKVX): > 100 µM (inactive) | GI50 (MOLT-4): > 100 µM (inactive) | GI50 (PC-3): > 100 µM (inactive) | GI50 (SF-295): > 100 µM (inactive) | GI50 (MDA-MB-231): > 100 µM (inactive) | GI50 (KM12): > 100 µM (inactive) | GI50 (SNB-75): > 100 µM (inactive) | GI50 (NCI/ADR-RES): > 100 µM (inactive) | GI50 (HT-29): > 100 µM (inactive) | GI50 (SK-MEL-28): > 100 µM (inactive) | GI50 (UACC-257): > 100 µM (inactive) | GI50 (K562): > 100 µM (inactive) | GI50 (HOP-62): > 100 µM (inactive) | GI50 (M14): > 100 µM (inactive) | GI50 (SNB-19): > 100 µM (inactive) | GI50 (MDA-N): > 100 µM (inactive) | GI50 (SW-620): > 100 µM (inactive) | GI50 (NCI-H522): > 100 µM (inactive) | GI50 (NCI-H226): > 100 µM (inactive) | GI50 (CCRF-CEM): > 100 µM (inactive) | GI50 (MCF7): > 100 µM (inactive) | GI50 (SR): > 100 µM (inactive) | GI50 (SF-268): > 100 µM (inactive) | GI50 (UO-31): > 100 µM (inactive) | GI50 (TK-10): > 100 µM (inactive) | GI50 (NCI-H460): > 100 µM (inactive) | GI50 (HCC 2998): > 100 µM (inactive) | GI50 (Malme-3M): > 100 µM (inactive) | GI50 (SN12C): > 100 µM (inactive) | GI50 (ACHN): > 100 µM (inactive) | GI50 (RXF 393): > 100 µM (inactive) | GI50 (U-251): > 100 µM (inactive) | GI50 (SK-OV-3): > 100 µM (inactive) | GI50 (MDA-MB-435): > 100 µM (inactive) | GI50 (OVCAR-5): > 100 µM (inactive) | GI50 (SK-MEL-5): > 100 µM (inactive) | GI50 (OVCAR-3): > 100 µM (inactive) | GI50 (COLO 205): > 100 µM (inactive) | GI50 (OVCAR-4): > 100 µM (inactive) | GI50 (HCT-15): > 100 µM | GI50 (UACC-62): > 100 µM (inactive) | GI50 (OVCAR-8): > 100 µM (inactive) | GI50 (BT-549): > 100 µM (inactive) | GI50 (A498): > 100 µM (inactive) | GI50 (A549): > 100 µM (inactive) | GI50 (SK-MEL-2): > 100 µM (inactive) | GI50 (HOP-92): > 100 µM (inactive) | GI50 (NCI-H23): > 100 µM (inactive) | GI50 (IGROV-1): > 100 µM (inactive)
